How the values were obtained:
Phakopsora pachyrhizi = Phakopsora pachyrhizi / soybean / leaf disc preventative (Asian soybean rust); assay type: in vivo; conditions: foliar, 288 h, 200 ppm in the applied formulation, soybean leaf disks, inoculated one day after application, assessed 12 to 14 days after application, vs untreated, read-out: disease control
In short: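 Read-out is percent disease control relative to untreated check discs, assessed once untreated discs show adequate disease, 12 to 14 days after application. Compounds, tested at 200 ppm in the applied formulation, are sprayed onto soybean leaf discs one day before inoculation with a spore suspension.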

[1] = test system: Puccinia recondita f. Sp. Tritici; assay: Puccinia recondita f. sp. tritici / wheat / leaf disc curative (brown rust); assay type: in vivo; conditions: foliar, 144 h, 200 ppm in the applied formulation, wheat leaf segments cv. Kanzler, applied 1 day after inoculation, assessed 6 to 8 days after application, vs untreated, read-out: disease control
In short: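 Compound applied 1 day after spore inoculation of wheat cv. Kanzler leaf segments on agar (dark, 19 °C, 75% RH before treatment). After further incubation under 12 h light/12 h dark at 19 °C and 75% RH, disease control relative to untreated segments rated 6–8 days post-application.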

[2] = test system: Glomerella Lagenarium (Colletotrichum Lagenarium); assay: Glomerella lagenarium (Colletotrichum lagenarium) liquid culture / cucumber / preventative (anthracnose); assay type: cell-based; conditions: Colletotrichum orbiculare; 20 ppm in the applied formulation; liquid culture in PDB, 24° C., inhibition of growth measured photometrically 3 to 4 days after application, vs untreated; read-out: disease control
In short: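 Conidia from cryogenic storage were mixed into potato dextrose broth. This was added to compound diluted from DMSO into 0.025% Tween20, tested at 20 ppm. Plates were incubated in the dark at 24 °C and 96% relative humidity, and growth was read photometrically after 2–7 days as % activity versus untreated check.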

[3] = test system: Puccinia recondita f. Sp. Tritici; assay: Puccinia recondita f. sp. tritici / wheat / leaf disc preventative (brown rust); assay type: in vivo; conditions: foliar, 168 h, 200 ppm in the applied formulation, wheat leaf segments cv. Kanzler, preventative, inoculated 1 day after application, assessed 7 to 9 days after application, vs untreated, read-out: disease control
In short: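 Preventative leaf-segment test: spray application of diluted formulated compound on wheat cv. Kanzler, spore inoculation after 1 day. Percent control relative to untreated segments rated 7 to 9 days post-application, with incubation at 19° C, 75% relative humidity, 12 h photoperiod.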

Nc1nc(C(F)(F)F)nn1Cc1ccc(-c2noc(C(F)(F)F)n2)cc1 [Compound 1.200, 5-(trifluoromethyl)-2-[[4-[5-(trifluoromethyl)-1,2,4-oxadiazol-3-yl]phenyl]methyl]-1,2,4-triazol-3-amine]
≥ 80%: pest or weed control at 200 ppm (Phakopsora pachyrhizi) | pest or weed control at 200 ppm [1] | inhibition of growth at 20 ppm [2] | pest or weed control at 200 ppm [3]

CCCSc1ncn(Cc2ccc(-c3noc(C(F)(F)F)n3)cc2)n1 [Compound 1.206, 3-[4-[(3-propylsulfanyl-1,2,4-triazol-1-yl)methyl]phenyl]-5-(trifluoromethyl)-1,2,4-oxadiazole]
≥ 80%: pest or weed control at 200 ppm (Phakopsora pachyrhizi) | pest or weed control at 200 ppm [1] | inhibition of growth at 20 ppm [2] | pest or weed control at 200 ppm [3]

CCCSc1ncnn1Cc1ccc(-c2noc(C(F)(F)F)n2)cc1 [Compound 1.207, 3-[4-[(5-propylsulfanyl-1,2,4-triazol-1-yl)methyl]phenyl]-5-(trifluoromethyl)-1,2,4-oxadiazole]
≥ 80%: pest or weed control at 200 ppm (Phakopsora pachyrhizi) | pest or weed control at 200 ppm [1] | inhibition of growth at 20 ppm [2] | pest or weed control at 200 ppm [3]

CCSc1ncn(Cc2ccc(-c3noc(C(F)(F)F)n3)cc2)n1 [Compound 1.208, 3-[4-[(3-ethylsulfanyl-1,2,4-triazol-1-yl)methyl]phenyl]-5-(trifluoromethyl)-1,2,4-oxadiazole]
≥ 80%: pest or weed control at 200 ppm (Phakopsora pachyrhizi) | pest or weed control at 200 ppm [1] | inhibition of growth at 20 ppm [2] | pest or weed control at 200 ppm [3]

FC(F)(F)c1nc(-c2ccc(Cn3cnnc3SCc3ccccc3)cc2)no1 [Compound 1.213, 3-[4-[(3-benzylsulfanyl-1,2,4-triazol-4-yl)methyl]phenyl]-5-(trifluoromethyl)-1,2,4-oxadiazole]
≥ 80%: pest or weed control at 200 ppm (Phakopsora pachyrhizi) | pest or weed control at 200 ppm [1] | inhibition of growth at 20 ppm [2] | pest or weed control at 200 ppm [3]

COc1nc(N)n(Cc2ccc(-c3noc(C(F)(F)F)n3)cc2)n1 [Compound 1.214, 5-methoxy-2-[[4-[5-(trifluoromethyl)-1,2,4-oxadiazol-3-yl]phenyl]methyl]-1,2,4-triazol-3-amine]
≥ 80%: pest or weed control at 200 ppm (Phakopsora pachyrhizi) | pest or weed control at 200 ppm [1] | inhibition of growth at 20 ppm [2] | pest or weed control at 200 ppm [3]

COc1nc(N)nn1Cc1ccc(-c2noc(C(F)(F)F)n2)cc1 [Compound 1.215, 5-methoxy-1-[[4-[5-(trifluoromethyl)-1,2,4-oxadiazol-3-yl]phenyl]methyl]-1,2,4-triazol-3-amine]
≥ 80%: pest or weed control at 200 ppm (Phakopsora pachyrhizi) | pest or weed control at 200 ppm [1] | inhibition of growth at 20 ppm [2] | pest or weed control at 200 ppm [3]

CCOC(=O)c1cccnc1-c1ccn(Cc2ccc(-c3noc(C(F)(F)F)n3)cc2)n1 [Compound 1.219, ethyl 2-[1-[[4-[5-(trifluoromethyl)-1,2,4-oxadiazol-3-yl]phenyl]methyl]pyrazol-3-yl]pyridine-3-carboxylate]
≥ 80%: pest or weed control at 200 ppm (Phakopsora pachyrhizi) | pest or weed control at 200 ppm [1] | inhibition of growth at 20 ppm [2] | pest or weed control at 200 ppm [3]

Nc1nc(C(F)F)nn1Cc1ccc(-c2noc(C(F)(F)F)n2)cc1 [Compound 1.222, 5-(difluoromethyl)-2-[[4-[5-(trifluoromethyl)-1,2,4-oxadiazol-3-yl]phenyl]methyl]-1,2,4-triazol-3-amine]
≥ 80%: pest or weed control at 200 ppm (Phakopsora pachyrhizi) | pest or weed control at 200 ppm [1] | inhibition of growth at 20 ppm [2] | pest or weed control at 200 ppm [3]

FC(F)(F)c1nc(-c2ccc(Cn3cnnc3)cc2)no1 [Compound 1.226, 3-[4-(1,2,4-triazol-4-ylmethyl)phenyl]-5-(trifluoromethyl)-1,2,4-oxadiazole]
≥ 80%: pest or weed control at 200 ppm (Phakopsora pachyrhizi) | pest or weed control at 200 ppm [1] | inhibition of growth at 20 ppm [2] | pest or weed control at 200 ppm [3]

FC(F)(F)c1nc(-c2ccc(Cn3cnc(-c4ccc(Cl)cc4)c3)cc2)no1 [Compound 1.229, 3-[4-[[4-(4-chlorophenyl)imidazol-1-yl]methyl]phenyl]-5-(trifluoromethyl)-1,2,4-oxadiazole]
≥ 80%: pest or weed control at 200 ppm (Phakopsora pachyrhizi) | pest or weed control at 200 ppm [1] | inhibition of growth at 20 ppm [2] | pest or weed control at 200 ppm [3]

COc1nc(Br)n(Cc2ccc(-c3noc(C(F)(F)F)n3)cc2)n1 [Compound 1.232, 3-[4-[(5-bromo-3-methoxy-1,2,4-triazol-1-yl)methyl]phenyl]-5-(trifluoromethyl)-1,2,4-oxadiazole]
≥ 80%: pest or weed control at 200 ppm (Phakopsora pachyrhizi) | pest or weed control at 200 ppm [1] | inhibition of growth at 20 ppm [2] | pest or weed control at 200 ppm [3]

COc1nc(Br)nn1Cc1ccc(-c2noc(C(F)(F)F)n2)cc1 [Compound 1.233, 3-[4-[(3-bromo-5-methoxy-1,2,4-triazol-1-yl)methyl]phenyl]-5-(trifluoromethyl)-1,2,4-oxadiazole]
≥ 80%: pest or weed control at 200 ppm (Phakopsora pachyrhizi) | pest or weed control at 200 ppm [1] | inhibition of growth at 20 ppm [2] | pest or weed control at 200 ppm [3]

COC(=O)c1cnn(Cc2ccc(-c3noc(C(F)(F)F)n3)cc2)c1C1CC1 [Compound 1.236, methyl 5-cyclopropyl-1-[[4-[5-(trifluoromethyl)-1,2,4-oxadiazol-3-yl]phenyl]methyl]pyrazole-4-carboxylate]
≥ 80%: pest or weed control at 200 ppm (Phakopsora pachyrhizi) | pest or weed control at 200 ppm [1] | inhibition of growth at 20 ppm [2] | pest or weed control at 200 ppm [3]

COC(=O)c1cn(Cc2ccc(-c3noc(C(F)(F)F)n3)cc2)nc1C1CC1 [Compound 1.237, methyl 3-cyclopropyl-1-[[4-[5-(trifluoromethyl)-1,2,4-oxadiazol-3-yl]phenyl]methyl]pyrazole-4-carboxylate]
≥ 80%: pest or weed control at 200 ppm (Phakopsora pachyrhizi) | pest or weed control at 200 ppm [1] | inhibition of growth at 20 ppm [2] | pest or weed control at 200 ppm [3]

COCc1nn(Cc2ccc(-c3noc(C(F)(F)F)n3)cc2)cc1C(=O)OC [Compound 1.238, methyl 3-(methoxymethyl)-1-[[4-[5-(trifluoromethyl)-1,2,4-oxadiazol-3-yl]phenyl]methyl]pyrazole-4-carboxylate]
≥ 80%: pest or weed control at 200 ppm (Phakopsora pachyrhizi) | pest or weed control at 200 ppm [1] | inhibition of growth at 20 ppm [2] | pest or weed control at 200 ppm [3]

COCc1c(C(=O)OC)cnn1Cc1ccc(-c2noc(C(F)(F)F)n2)cc1 [Compound 1.239, methyl 5-(methoxymethyl)-1-[[4-[5-(trifluoromethyl)-1,2,4-oxadiazol-3-yl]phenyl]methyl]pyrazole-4-carboxylate]
≥ 80%: pest or weed control at 200 ppm (Phakopsora pachyrhizi) | pest or weed control at 200 ppm [1] | inhibition of growth at 20 ppm [2] | pest or weed control at 200 ppm [3]

FC(F)(F)c1nc(-c2ccc(Cn3ccc(Cl)n3)cc2)no1 [Compound 1.243, 3-[4-[(3-chloropyrazol-1-yl)methyl]phenyl]-5-(trifluoromethyl)-1,2,4-oxadiazole]
≥ 80%: pest or weed control at 200 ppm (Phakopsora pachyrhizi) | pest or weed control at 200 ppm [1] | inhibition of growth at 20 ppm [2] | pest or weed control at 200 ppm [3]

FC(F)(F)c1nc(-c2ccc(Cn3cccc4nnnc3-4)cc2)no1 [Compound 1.244, 3-[4-(triazolo[4,5-b]pyridin-4-ylmethyl)phenyl]-5-(trifluoromethyl)-1,2,4-oxadiazole]
≥ 80%: pest or weed control at 200 ppm (Phakopsora pachyrhizi) | pest or weed control at 200 ppm [1] | inhibition of growth at 20 ppm [2] | pest or weed control at 200 ppm [3]

Cc1cc(C)n(Cc2ccc(-c3noc(C(F)(F)F)n3)c(F)c2)n1 [Compound 1.253, 3-[4-[(3,5-dimethylpyrazol-1-yl)methyl]-2-fluoro-phenyl]-5-(trifluoromethyl)-1,2,4-oxadiazole]
≥ 80%: pest or weed control at 200 ppm (Phakopsora pachyrhizi) | pest or weed control at 200 ppm [1] | inhibition of growth at 20 ppm [2] | pest or weed control at 200 ppm [3]

— patent publication US10798941B2, “Microbiocidal oxadiazole derivatives” (SYNGENTA PARTICIPATIONS AG, priority 2016, dated 2020)
